In BindingDB's records for patent US20250313563 (The Broad Institute, 2025):
Several values for one entry are separate records, joined by “and”; a condition that tells them apart may be missing. Identical values can stand only once.

Tests used:
[1] = biological target: Glycogen synthase kinase-3 alpha (Homo sapiens, UniProt P49840); assay: TR-FRET Assay
Method in brief: (§1)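 TR-FRET readout: streptavidin-d2 (40 nM in added detection mix) plus Tb-anti-pSer641 Ab (2 nM in mix). Steps were 30 min compound preincubation, kinase reaction, then EDTA stop.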

[2] = biological target: Glycogen synthase kinase-3 beta (Homo sapiens, UniProt P49841); assay: TR-FRET Assay
Method in brief: as §1

Chain of Glycogen synthase kinase-3 alpha (P49840 whole entry): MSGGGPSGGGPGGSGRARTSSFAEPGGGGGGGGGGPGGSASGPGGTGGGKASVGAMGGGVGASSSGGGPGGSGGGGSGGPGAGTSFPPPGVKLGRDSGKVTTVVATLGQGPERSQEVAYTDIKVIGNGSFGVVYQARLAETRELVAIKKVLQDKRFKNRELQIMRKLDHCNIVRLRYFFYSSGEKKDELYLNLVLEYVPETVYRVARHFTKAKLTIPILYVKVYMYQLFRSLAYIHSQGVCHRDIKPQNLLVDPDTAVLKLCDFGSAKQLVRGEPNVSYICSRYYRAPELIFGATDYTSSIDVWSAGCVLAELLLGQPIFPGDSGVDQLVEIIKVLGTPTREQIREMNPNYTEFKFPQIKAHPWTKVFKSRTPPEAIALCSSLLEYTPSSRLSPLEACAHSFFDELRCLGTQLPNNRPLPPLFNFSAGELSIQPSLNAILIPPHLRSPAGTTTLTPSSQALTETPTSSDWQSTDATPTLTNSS
Chain of Glycogen synthase kinase-3 beta (P49841 whole entry): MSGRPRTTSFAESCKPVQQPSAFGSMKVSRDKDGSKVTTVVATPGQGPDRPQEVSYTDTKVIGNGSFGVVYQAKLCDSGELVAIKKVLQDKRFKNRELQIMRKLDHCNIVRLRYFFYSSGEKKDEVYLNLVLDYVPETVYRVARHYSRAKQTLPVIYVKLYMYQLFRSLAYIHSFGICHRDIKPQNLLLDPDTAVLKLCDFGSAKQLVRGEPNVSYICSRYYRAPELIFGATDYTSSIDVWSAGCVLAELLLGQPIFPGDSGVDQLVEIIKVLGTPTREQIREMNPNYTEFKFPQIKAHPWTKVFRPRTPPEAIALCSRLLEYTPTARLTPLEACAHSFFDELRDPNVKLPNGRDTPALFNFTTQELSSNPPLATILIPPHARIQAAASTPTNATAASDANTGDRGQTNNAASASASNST

Row | Structure (SMILES) | IC50 [1] | IC50 [2]
1 | CC[C@@]1(c2cccc(C(F)(F)F)c2)C2=C(NC3=NN=CC31)c1ccccc1C2=O (stereo partly specified) [US20250313563, Compound 949742] | 0.1 to 1 µM | 0.1 to 1 µM
2 | CCCn1nccc1-c1cccc([C@@]2(CC)C3=CN=NC3NC3=C2C(=O)CC(C)(C)C3)c1 (stereo partly specified) [US20250313563, Compound 946094] | 0.1 to 1 µM | 1 to 5 µM
3 | CCC1(c2cccc(-c3ccnc(CO)c3)c2)C2=CN=NC2NC2=C1C(=O)CC(C)(C)C2 (stereo unspecified) [US20250313563, Compound 943540] | < 0.1 µM | 0.1 to 1 µM
4 | Cc1cc(C)cc(C(=O)N2CC3(C2)C[C@]2(CO3)C3=C(N=NC3)NC3=C2C(=O)CC(C)(C)C3)c1 [US20250313563, Compound 948222] | 0.1 to 1 µM | 1 to 5 µM
5 | Cc1ccc(CC(=O)N2CC3(C2)CC2(CO3)C3=C(N=NC3)NC3=C2C(=O)CC(C)(C)C3)cc1 (stereo unspecified) [US20250313563, Compound 947281] | < 0.1 µM and 0.1 to 1 µM | < 0.1 µM and 0.1 to 1 µM
6 | CC[C@@]1(c2ccccc2)C2=CN=NC2NC2=C1C(=O)C[C@](C)(COC)C2 (stereo partly specified) [US20250313563, Compound 816873] | 0.1 to 1 µM | 1 to 5 µM
7 | CC[C@@]1(c2cccc(C(F)(F)F)c2)C2=CN=NC2NC2=C1C(=O)N(c1ccccn1)CC2 (stereo partly specified) [US20250313563, Compound 949311] | 0.1 to 1 µM | > 5 µM
8 | CCC1(c2cccc(-c3ccnn3C(C)C)c2)C2=CN=NC2NC2=C1C(=O)CC(C)(C)C2 (stereo unspecified) [US20250313563, Compound 929399] | < 0.1 µM | < 0.1 µM
9 | CCC1(c2cccc(N3CC4CCC3C4)c2)C2=CN=NC2NC2=C1C(=O)CC(C)(C)C2 (stereo unspecified) [US20250313563, Compound 885110] | < 0.1 µM | 0.1 to 1 µM
10 | CC1(C)CC(=O)C2=C(C1)NC1=C(CN=N1)[C@]21CCC[C@H](C#N)C1 [US20250313563, Compound 946078] | 1 to 5 µM | > 5 µM
11 | CCC1(c2cccc(C(F)(F)F)c2)C2=C(CC(C)(C)CC2=O)NC2N=NC(C(F)(F)F)=C21 (stereo unspecified) [US20250313563, Compound 789584] | 0.1 to 1 µM | 1 to 5 µM
12 | CC[C@@]1(c2cccc(C(F)(F)F)c2)C2=CN=NC2NC2=C1C(=O)N[C@H](C)C2 (stereo partly specified) [US20250313563, Compound 912098] | < 0.1 µM | 0.1 to 1 µM
13 | CCC1(c2cccc(-c3ccnnc3)c2)C2=CN=NC2NC2=C1C(=O)CC(C)(C)C2 (stereo unspecified) [US20250313563, Compound 927342] | < 0.1 µM | < 0.1 µM
14 | CC[C@@]1(c2cccc(C(F)(F)F)c2)C2=CN=NC2NC2=C1C(=O)N(CCOC)CC2 (stereo partly specified) [US20250313563, Compound 949600] | > 5 µM | > 5 µM
15 | CC1(C)CC(=O)C2=C(C1)NC1=C(CN=N1)[C@]21C[C@@]2(CCN(CC(F)(F)F)C2)C1 [US20250313563, Compound 913138] | 0.1 to 1 µM | 0.1 to 1 µM
16 | CC1(C)CC(=O)C2=C(C1)NC1=C(CN=N1)[C@@]21COC2(CN(C(=O)c3ccccc3)C2)C1 [US20250313563, Compound 943955] | < 0.1 µM | < 0.1 µM
17 | CC1(C)CC(=O)C2=C(C1)NC1=C(CN=N1)C21COC2(CN(C(=O)CC3CCC3)C2)C1 (stereo unspecified) [US20250313563, Compound 947299] | < 0.1 µM | < 0.1 µM
18 | CC1(C)CC(=O)C2=C(C1)NC1=C(CN=N1)[C@@]21CCOC2(CCOCC2)C1 [US20250313563, Compound 924306] | 0.1 to 1 µM | 0.1 to 1 µM
19 | CCC1(c2cccc(N(C)c3ccc(C)nc3)c2)C2=CN=NC2NC2=C1C(=O)CC(C)(C)C2 (stereo unspecified) [US20250313563, Compound 918272] | 0.1 to 1 µM | 0.1 to 1 µM
20 | CC1(C)CC(=O)C2=C(C1)NC1=C(CN=N1)[C@]21CC[C@H](C(F)(F)F)C1 [US20250313563, Compound 952435] | < 0.1 µM | 0.1 to 1 µM
21 | CCC1(c2cccc(-c3ccnc(OC)c3)c2)C2=CN=NC2NC2=C1C(=O)CC(C)(C)C2 (stereo unspecified) [US20250313563, Compound 883850] | < 0.1 µM | 0.1 to 1 µM

Second part, the molecule after the results:

Row | IC50 [1] | IC50 [2] | Structure (SMILES)
22 | 0.1 to 1 µM | 1 to 5 µM | CC1(C)CC(=O)C2=C(C1)NC1=C(CN=N1)C2(C)c1cc(Cl)cc(Cl)c1 (stereo unspecified) [US20250313563, Compound 789337]
23 | < 0.1 µM | < 0.1 µM | C[C@H]1C[C@]2(CCN1S(=O)(=O)c1ccn(C)n1)C1=C(N=NC1)NC1=C2C(=O)CC(C)(C)C1 [US20250313563, Compound 926815]
24 | 0.1 to 1 µM | 1 to 5 µM | CC[C@@]1(c2cccc(-c3cnn(-c4ccccc4)c3F)c2)C2=CN=NC2NC2=C1C(=O)NC(C)(C)C2 (stereo partly specified) [US20250313563, Compound 950821]
25 | < 0.1 µM | < 0.1 µM | CCC1(c2cccc(-c3cn(C)nc3C)c2)C2=CN=NC2NC2=C1C(=O)NC(C)(C)C2 (stereo unspecified) [US20250313563, Compound 944030]
26 | < 0.1 µM | < 0.1 µM | CCC1(c2cccc(S(=O)(=O)CC3CC3)c2)C2=C(CC(C)(C)NC2=O)NC2N=NC(C)=C21 (stereo unspecified) [US20250313563, Compound 948178]
27 | 1 to 5 µM | 0.1 to 1 µM | CC(C)(C)CC1=C2C(N=N1)NC1=C(C(=O)CC(C)(C)C1)[C@@]21CCCc2ccccc21 (stereo partly specified) [US20250313563, Compound 811596]
28 | < 0.1 µM | < 0.1 µM | CCC1(c2cccc(S(=O)(=O)C3CCCCC3)c2)C2=CN=NC2NC2=C1C(=O)CC(C)(C)C2 (stereo unspecified) [US20250313563, Compound 918273]
29 | < 0.1 µM | 0.1 to 1 µM | CCC1(c2cccc(N(C)C(=O)CN3CCCC3)c2)C2=CN=NC2NC2=C1C(=O)CC(C)(C)C2 (stereo unspecified) [US20250313563, Compound 913125]
30 | > 5 µM | > 5 µM | CC[C@]1(c2cccc(-c3cnn(-c4cccnc4)c3)c2)C2=CN=NC2NC2=C1C(=O)NC(C)(C)C2 (stereo partly specified) [US20250313563, Compound 949515]
31 | > 5 µM | > 5 µM | CC1(C)CC(=O)C2=C(C1)NC1=C(CN=N1)C21CN(S(=O)(=O)c2cccnc2)C1 [US20250313563, Compound 913265]
32 | 1 to 5 µM | 0.1 to 1 µM | CC(C)(C)CC1N=NC2=C1[C@](C)(c1cccc(S(=O)(=O)N3CCCC3)c1)C1=C(CC(C)(C)NC1=O)N2 (stereo partly specified) [US20250313563, Compound 108791]
33 | < 0.1 µM | < 0.1 µM | CC1(C)CC(=O)C2=C(C1)NC1=C(CN=N1)C21CN(S(=O)(=O)c2ccccc2)C1 [US20250313563, Compound 901474]
34 | < 0.1 µM | < 0.1 µM | CC[C@@]1(c2cccc(C(F)(F)F)c2)C2=C(CC(C)(C)CC2=O)NC2N=NC(C)=C21 (stereo partly specified) [US20250313563, Compound 810367]
35 | > 5 µM | > 5 µM | CC(C)(C)CC1N=NC2=C1[C@@](C)(c1cccc(S(=O)(=O)N3CCCC3)c1)C1=C(CC(C)(C)NC1=O)N2 (stereo partly specified) [US20250313563, Compound 108794]
36 | < 0.1 µM and 0.1 to 1 µM | < 0.1 µM and 1 to 5 µM | CC[C@@]1(c2cccc(-c3c(C)cncc3C)c2)C2=CN=NC2NC2=C1C(=O)NC(C)(C)C2 (stereo partly specified) [US20250313563, Compound 948812]
37 | 0.1 to 1 µM | 0.1 to 1 µM | CC[C@]1(c2cccc([C@@H]3CCOC(C)(C)C3)c2)C2=CN=NC2NC2=C1C(=O)CC(C)(C)C2 (stereo partly specified) [US20250313563, Compound 912089]
38 | > 5 µM | > 5 µM | CCC1(c2cccc(C(F)(F)F)c2)C2=C(N=NC2)NC2=C1C(=O)NCCC2 (stereo unspecified) [US20250313563, Compound 913355]
